Our source for the IC50 values is article PMC8879474, “Tissue Transglutaminase but Not Microbial Transglutaminase Is Inhibited by Exogenous Oxidative Substances in Celiac Disease” (International Journal of Molecular Sciences, 2022).

The target of the experiment is T1, transglutaminase 2 (TG2, tissue transglutaminase) (Homo sapiens, UniProt P21980).
T1 construct: gene TGM2
T1 sequence (P21980 2-687): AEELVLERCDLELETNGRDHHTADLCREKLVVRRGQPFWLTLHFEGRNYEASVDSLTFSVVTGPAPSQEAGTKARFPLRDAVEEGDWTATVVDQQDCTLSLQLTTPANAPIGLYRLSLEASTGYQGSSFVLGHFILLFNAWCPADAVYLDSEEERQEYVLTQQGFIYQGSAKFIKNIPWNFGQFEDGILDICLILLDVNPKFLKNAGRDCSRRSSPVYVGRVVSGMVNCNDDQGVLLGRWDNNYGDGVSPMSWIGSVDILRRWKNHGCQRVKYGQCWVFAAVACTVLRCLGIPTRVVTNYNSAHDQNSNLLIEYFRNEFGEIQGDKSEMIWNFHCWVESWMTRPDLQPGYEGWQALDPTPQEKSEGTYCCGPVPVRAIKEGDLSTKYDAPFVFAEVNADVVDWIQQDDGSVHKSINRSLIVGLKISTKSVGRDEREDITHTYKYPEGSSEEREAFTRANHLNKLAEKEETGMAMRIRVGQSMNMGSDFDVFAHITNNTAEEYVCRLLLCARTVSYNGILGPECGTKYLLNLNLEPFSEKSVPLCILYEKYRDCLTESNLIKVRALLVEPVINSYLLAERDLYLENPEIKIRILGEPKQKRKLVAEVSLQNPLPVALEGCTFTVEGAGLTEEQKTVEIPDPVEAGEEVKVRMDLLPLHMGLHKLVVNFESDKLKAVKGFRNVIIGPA
In words: in vitro 5BP transamidation assay with immobilized TG2 ([…]), photometric. Format: biochemical.

As to `N[C@@H](CSSC[C@H](N)C(=O)O)C(=O)O` [L-cystine], half-maximal inhibition (IC50) was put at 140 µM.

As to `CCC(C)SSc1ncc[nH]1` (centres unmarked) [PX12, 1-methylpropyl 2-imidazolyl disulfide], half-maximal inhibition (IC50) was put at 0.7 µM.

For orientation: IC50 means the point on the concentration scale where inhibition reaches its midpoint. High values mean weaker potency in that assay, low ones greater potency in that assay.
